Data reported in patent publication US6166004A, “Combinations of HIV protease inhibitors with reverse transcriptase inhibitors” (Novartis Finance Corporation, priority 1996, dated 2000).

Experiments:
[1] = tested on: HIV-1 (pNL4-3 clone) in HeLaT4 cells; test: Transient DNA transfection assay in HeLaT4 cells (HIV clone pNL4-3), potency; assay type: cell-based; conditions: transfection system
From the text: (§1) Inhibitor-resistant HIV-1 protease variants are cloned as follows:
(§2) By way of PCR-supported mutagenesis and cloning, HIV-1 protease mutants are generated that are based on the infectious clone pNL4-3 (freely available via the "NIH AIDS reference and reagent program", the original reference is A. Adachi et al. J. Virol (1986) 59, 284-91--but it can, of course, be any other HIV clone, or even clinical material, provided that comparability is ensured). […] The cloned fragments are, for example, only 500 base pairs in length, all of the remainder being unchanged. By using mutations in always the same clone, direct comparability is ensured, which would not be the case in a direct comparison of clinical samples or of different HIV clones.
(§3) That system is used as a transient DNA transfection system for tests:
(§4) 1) in order to identify possible cross-resistances of protease variants to several protease inhibitors; and
(§5) 2) in order to establish the potency and resistance profile of novel inhibitor candidates.
(§6) Instead of the strains mentioned, there may be used any human T4-positive cells, such as the HeLaT4 cells, deposited under that name by Richard Axel and Paul Maddon in "NIH AIDS reference and reagent program" and obtainable via that source.

[2] = tested on: HIV-1 protease resistant variant (451/76F strain)
From the text: as §1, §2, §3, §4, §5, §6

[3] = tested on: 46I/47V/50V (VX478) strain; test: Transient DNA transfection assay, resistant strain 46I/47V/50V (VX478); assay type: cell-based, HIV-1; conditions: 10 nM, not quantified
From the text: as §1, §2, §3, §4, §5, §6

## COC(=O)N[C@H](C(=O)N[C@@H](Cc1ccccc1)[C@@H](O)CN(Cc1ccc(-c2ccccn2)cc1)NC(=O)[C@@H](NC(=O)OC)C(C)(C)C)C(C)(C)C [Example 46, 1-[4-(Pyridin-2-yl)-phenyl]-4(S)-hydroxy-5(S)-2,5-bis[N-(N-methoxycarbonyl-(L)-tert-leucyl)amino]-6-phenyl-2-azahexane]
[1]
  in vitro potency compared with saquinavir: in practical terms better than that of saquinavir
[2]
  activity against resistant variant compared with other protease inhibitors: comparable with saquinavir and better than that of indinavir (Merck & Co., Inc., see below) or ritonavir
[3]
  activity compared with saquinavir, ritonavir and indinavir: more potent (not quantified) than that of saquinavir, ritonavir and indinavir
